In article PMC6021032, “Antimycobacterial activity of nitrogen heterocycles derivatives: 7-(pyridine-4-yl)-indolizine derivatives. Part VII^8–12” (Journal of Enzyme Inhibition and Medicinal Chemistry, 2017):
In brackets after ≈: the same amount, converted by molar mass.

What was measured:
[1] = test system: Mycobacterium tuberculosis H37Rv; test: Primary screen (Cycle 1): MIC, IC50, IC90 under aerobic conditions; assay type: cell-based
[2] = Plasma protein binding by equilibrium dialysis; details: Human plasma protein binding assay
[3] = human
Caco-2-cell monolayer = test: Caco-2 permeability assay
Experimental: The Caco-2 cell layer permeability assay is widely used as a more predictive in vitro model of absorption through the intestinal epithelium. […] For B–A permeability, test compound was added to the basal side of the Caco-2 monolayer and the transport of the compound to the apical side monitored. The amount of compound present in each compartment was quantified by LC-MS/MS.
recovered and analyzed by LC-MS/MS.
3.2. Caco-2 Permeability Assay
feeding at 2-day intervals.
Each experiment included the
contained transport buffer at pH 7.4.
3.3. Cytochrome P450 Inhibition Assay
and was < 0.2%. Samples were run in duplicate. Compounds were incubated with human liver

Mtb = test system: Mtb; set-up: method as in PMID 24268596; details: reported anti-TB activity of compound 1; cited from earlier work
Mtb H37Rv = test: LORA parallel plates, oxygen-deprived bacteria incubated under aerobic conditions (normal oxygen); assay type: cell-based, Mycobacterium tuberculosis; details: Mycobacterium tuberculosis, H37RV; for MIC: 120 h, oxygen-deprived bacteria, aerobic 5 d
[4] = Cytotoxicity, THP-1 cell viability (CellTiter-Glo); details: human
[5] = test system: THP-1 cell line infected with Mtb; test: Intracellular activity assay, luminescence; assay type: cell-based, Mycobacterium tuberculosis; details: Mycobacterium tuberculosis, Mtb-infected THP-1 cells, 72 h; for IC50: read-out: IC50 intracell; for IC90: read-out: IC90 intracell
Experimental: Since the overall efficacy of any anti TB drug will be improved by its ability to traffic into the macrophage phagosome containing replicating bacteria, we evaluated the intracellular activity of compounds[24]. This was measured by using THP-1 cell line infected with Mtb. Infected cells were exposed to compounds for 72 h and viable bacterial counts were measured using luminescence as a measure of intracellular growth.
Assay (Promega) which uses ATP as an indicator of cell viability. Relative luminescent units (RLU) were measured using a Biotek Synergy 4 plate reader. The dose response curve was fitted using the Levenberg–Marquardt algorithm. The IC50 was defined as the compound […]
Intracellular Activity Assay
The activity of compounds against intracellular bacteria was determined by measuring viability in infected THP-1 cell after 3 days in the presence of test compounds. Compounds were prepared as 10-point three-fold serial dilutions in DMSO. The highest concentration of […]
THP-1 cells were cultured in complete RPMI and differentiated into macrophage-like cells using 80 nM PMA overnight at 37°C, 5% CO2. THP-1 cells were infected with a luminescent strain of H37Rv (which constitutively expresses luxABCDE) at a multiplicity of infection of 1 and incubated overnight at 37°C, 5% CO2. Infected cells were recovered using Accutase/EDTA solution, washed twice with PBS to remove extracellular bacteria and seeded into assay pates. Compound dilutions were added to a final DMSO concentration of 0.5%.
Assay plates were incubated for 72 h at 37°C, 5% CO2. Each run included isoniazid as a control. Relative luminescent units (RLU) were measured using a Biotek Synergy 2 plate reader. The dose response curve was fitted using the Levenberg–Marquardt algorithm. The […]
inhibition of growth respectively.
3. Cycle 3 – Absorption, distribution, metabolism, excretion and toxicity (ADMET)
3.1. Plasma Protein Binding Assay
Compounds were added to human plasma at a fixed concentration of 5 µM. The mixture was dialyzed in a RED device (Rapid Equilibrium Dialysis, Pierce) against PBS and incubated on an orbital shaker for 4 h at 37 °C. Aliquots from plasma and PBS sides were collected; an equal volume of PBS was added to the plasma sample, and an equal volume of plasma was added to the PBS sample. Three volumes of methanol (containing the internal binding standard propranolol) was added to precipitate the proteins and release the compound.
Each compound was tested in duplicate. Samples were centrifuged, the supernatant was […]

M. tuberculosis H37Rv = test: Cycle 2 repeat of MIC, IC50, IC90 under aerobic conditions (lower starting concentrations); assay type: cell-based, Mycobacterium tuberculosis; details: Mycobacterium tuberculosis, revaluation; for IC50 / IC90: aerobic; for MIC: repeated at lower starting concentrations, read-out: MIC aerobic condition
Mycobacterium abscessus = test: MIC, IC50, IC90 against nontuberculous mycobacteria (OD590); assay type: cell-based; details: Mycobacteroides abscessus, M. abscessus; for MIC: read-out: MIC
Mycobacterium avium = test: MIC against nontuberculous mycobacteria (Alamar blue); assay type: cell-based; details: M. avium
in vitro = details: human
[6] = In vitro microsomal stability assay; details: human, 1 μM, 37 °C
Text: The stability of compound is expressed as a function of time[41]^,[42]
3.4. In vitro Microsomal Stability Assay
compound to detect NADPH-free degradation. Verapamil and dextromethorphan were
included as control compounds.

[7] = test system: human liver cells (HepG2); test: HepG2 cytotoxicity (CellTiter-Glo); assay type: cell-based; details: read-out: IC50 (50% loss of viability), 72 h
[8] = M. tuberculosis H37Rv, aerobic conditions, primary screen
[9] = MIC value taken from the first MIC assay
[10] = Mycobacterium tuberculosis, M. tuberculosis H37Rv, aerobic conditions, primary screen

Molecule: 4-[3-(4-Bromophenyl)-1-(ethoxycarbonyl)indolizine-7-yl)-1-(2-(4-methoxyphenyl)-2-oxoethyl)pyridine-1-ium bromide [Compound 6g]
- IC50 [1, 8]: 35 µM
- IC90 [1, 8]: 46 µM
- MIC [1, 8]: 50 µM

Molecule: CC(C)NC[C@H](O)COc1cccc2ccccc12 (racemic) [Propanolol]
- Recovery [2]: 93
- Mean plasma fraction bound [3]: 79.3%
- Mean plasma fraction unbound [3]: 20.7%
- Mean A→B Papp (Caco-2-cell monolayer; Caco-2, apical to basolateral): 12.7 10^−6cm/s
- Mean B→A Papp (Caco-2-cell monolayer; Caco-2, basolateral to apical): 25 10^−6cm/s
- efflux ratio (Caco-2-cell monolayer; Re = Papp (B→A)/Papp (A→B)): 2

Molecule: CCOC(=O)c1cc(C(=O)c2ccccc2)n2ccc(-c3cc[n+](CC(=O)c4ccc(OC)cc4)cc3)cc12 [Compound 1]
- IC90 (Mtb): 13.1 µM
- MIC (Mtb): 3.91 µM

Molecule: CCOC(=O)c1cc(C(=O)c2ccccc2)n2ccc(-c3cc[n+](CC(=O)c4ccc(C)cc4)cc3)cc12.[Br-] [Compound 6a, 4-(3-Benzoyl-1-(ethoxycarbonyl)indolizine-7-yl)-1-(2-oxo-2-(p-tolyl)ethyl)pyridin-1-ium bromide]
- IC50 (Mtb H37Rv): 9.2 µM
- IC90 (Mtb H37Rv): 42 µM
- MIC (Mtb H37Rv): 100 µM
- IC50 at 3 days [4]: 2.9 µM
- MIC [1, 9]: 14 µM
- IC50 [1, 10]: 13 µM
- IC90 [1, 10]: 15 µM
- MIC [1, 10]: 14 µM
- IC50 [5]: 5.2 µM
- IC90 [5]: 15 µM
- IC50 (M. tuberculosis H37Rv): 12 µM
- IC90 (M. tuberculosis H37Rv): 23 µM
- MIC (M. tuberculosis H37Rv): 22 µM
- IC50 (Mycobacterium abscessus): 24 µM
- IC90 (Mycobacterium abscessus): 37 µM
- MIC (Mycobacterium abscessus): > 200 µM
- MIC (Mycobacterium avium): 50 µM
- MIC (Mycobacterium avium; Mycobacterium avium): 50 µM

Molecule: CCOC(=O)c1cc(C(=O)c2ccccc2)n2ccc(-c3cc[n+](CC(=O)c4cccc(OC)c4)cc3)cc12 [Compound 6b, 4-(3-Benzoyl-1-(ethoxycarbonyl)indolizine-7-yl)-1-(2-(3-methoxyphenyl)-2-oxoethyl)pyridin-1-ium]
- melting point: 255 to 256 °C
- IC50 [1, 10]: 39 µM
- IC90 [1, 10]: > 50 µM
- MIC [1, 10]: > 50 µM

Molecule: CCOC(=O)c1cc(C(=O)c2ccc(Cl)cc2)n2ccc(-c3cc[n+](CC(=O)c4cccc(OC)c4)cc3)cc12 [Compound 6d, 4-(3-(4-Chlorobenzoyl)-1-(ethoxycarbonyl)indolizine-7-yl)-1-(2-(3-methoxyphenyl)-2-oxoethyl)pyridin-1-ium]
- IC50 (Mtb H37Rv): 17 µM
- IC90 (Mtb H37Rv): 27 µM
- MIC (Mtb H37Rv): 43 µM
- melting point: 252 to 254 °C
- MIC [1, 9]: 15 µM
- IC50 [1, 10]: 14 µM
- IC90 [1, 10]: 16 µM
- MIC [1, 10]: 15 µM
- IC50 [5]: 11 µM
- IC90 [5]: > 50 µM
- IC50 (M. tuberculosis H37Rv): 12 µM
- IC90 (M. tuberculosis H37Rv): 17 µM
- MIC (M. tuberculosis H37Rv): 14 µM
- IC50 (Mycobacterium abscessus): 81 µM
- IC90 (Mycobacterium abscessus): 150 µM
- MIC (Mycobacterium abscessus): > 200 µM
- IC50 at 3 days (in vitro): 3.9 µM
- MIC (Mycobacterium avium; Mycobacterium avium): 200 µM

Molecule: CCOC(=O)c1cc(C(=O)c2ccc(Cl)cc2)n2ccc(-c3cc[n+](CC(=O)c4ccc(F)cc4)cc3)cc12 [Compound 6e, 4-(3-(4-Chlorobenzoyl)-1-(ethoxycarbonyl)indolizine-7-yl)-1-(2-(4-fluorophenyl)-2-oxoethyl)pyridin-1-ium bromide]
- IC50 [1, 10]: > 100 µM
- IC90 [1, 10]: > 100 µM
- MIC [1, 10]: > 100 µM

Molecule: CCOC(=O)c1cc(C(=O)c2ccc(Br)cc2)n2ccc(-c3cc[n+](CC(=O)c4ccc(C)cc4)cc3)cc12.[Br-] [Compound 6f, 4-(3-(4-Bromobenzoyl)-1-(ethoxycarbonyl)indolizine-7-yl)-1-(2-oxo-2-(p-tolyl)ethyl)pyridin-1-ium bromide]
- melting point: 283 to 284 °C
- IC50 [1, 10]: 13 µM
- IC90 [1, 10]: 19 µM
- MIC [1, 10]: 20 µM

Molecule: CCOC(=O)c1cc(C(=O)c2ccc(Br)cc2)n2ccc(-c3cc[n+](CC(=O)c4cccc(OC)c4)cc3)cc12 [Compound 6h, 4-(3-(4-Bromobenzoyl)-1-(ethoxycarbonyl)indolizine-7-yl)-1-(2-(3-methoxyphenyl)-2-oxoethyl)pyridin-1-ium]
- IC50 (Mtb H37Rv): 16 µM
- IC90 (Mtb H37Rv): 24 µM
- MIC (Mtb H37Rv): 38 µM
- melting point: 256 to 259 °C
- MIC [1, 9]: 14 µM
- IC50 [1, 10]: 13 µM
- IC90 [1, 10]: 14 µM
- MIC [1, 10]: 14 µM
- IC50 [5]: 13 µM
- IC90 [5]: 43 µM
- IC50 (M. tuberculosis H37Rv): 15 µM
- IC90 (M. tuberculosis H37Rv): 26 µM
- MIC (M. tuberculosis H37Rv): 27 µM
- IC50 (Mycobacterium abscessus): > 200 µM
- IC90 (Mycobacterium abscessus): > 200 µM
- MIC (Mycobacterium abscessus): > 200 µM
- IC50 at 3 days (in vitro): 3.8 µM
- MIC (Mycobacterium avium; Mycobacterium avium): 200 µM

Molecule: CCOC(=O)c1cc(C(=O)c2ccc(Br)cc2)n2ccc(-c3cc[n+](CC(=O)c4ccc(Cl)cc4)cc3)cc12 [Compound 6j]
- IC50 [1, 10]: > 200 µM
- IC90 [1, 10]: > 200 µM
- MIC [1, 10]: > 200 µM

Molecule: CCOC(=O)c1cc(C(=O)c2ccc(C)cc2)n2ccc(-c3cc[n+](CC(=O)c4ccc([N+](=O)[O-])cc4)cc3)cc12 [Compound 6k]
- IC50 [1, 10]: 200 µM
- IC90 [1, 10]: > 200 µM
- MIC [1, 10]: > 200 µM

Molecule: CCOC(=O)c1cc(C(=O)c2ccc(OC)cc2)n2ccc(-c3cc[n+](CC(=O)c4ccc(Br)cc4)cc3)cc12 [Compound 6l]
- IC50 [1, 10]: > 200 µM
- IC90 [1, 10]: > 200 µM
- MIC [1, 10]: > 200 µM

Molecule: COc1ccc2c(c1)[C@]13CCCC[C@@H]1[C@H](C2)N(C)CC3 [Dextromethorphan, reference compound]
- microsomal CLint at 1 μM ([6]; s9, NADPH-dependent CLint): 24.3 µL/min/mg
- half-life at 1 μM ([6]; s9, NADPH-dependent T1/2, Human): 1.58 h
- microsomal CLint at 1 μM ([6]; s9, NADPH-free CLint): < 12.8 µL/min/mg
- half-life at 1 μM ([6]; s9, NADPH-free T1/2, Human): > 3 h

Molecule: NNC(=O)c1ccncc1 [Isoniazid, reference compound]
- IC50 [5]: 0.18 µM
- IC90 [5]: 0.27 µM

Molecule: Cc1ncc([N+](=O)[O-])n1CCO [Metronidazole, reference compound]
- IC50 (Mtb H37Rv): > 200 µM
- IC90 (Mtb H37Rv): > 200 µM
- MIC (Mtb H37Rv): > 200 µM

Molecule: CO[C@H]1/C=C/O[C@@]2(C)Oc3c(C)c(O)c4c(O)c(c(/C=N/N5CCN(C)CC5)c(O)c4c3C2=O)NC(=O)/C(C)=C\C=C\[C@H](C)[C@H](O)[C@@H](C)[C@@H](O)[C@@H](C)[C@H](OC(C)=O)[C@@H]1C [Rifampicin, reference compound]
- IC50 (Mtb H37Rv): 0.0057 µM
- IC90 (Mtb H37Rv): 0.011 µM
- MIC (Mtb H37Rv): 0.021 µM (≈ 0.0173 µg/mL)
- IC50 [1, 10]: 0.0036 µM
- IC90 [1, 10]: 0.0071 µM
- MIC [1, 10]: 0.0065 µM (≈ 0.00535 µg/mL)
- IC50 (M. tuberculosis H37Rv): 0.0043 µM
- IC90 (M. tuberculosis H37Rv): 0.0092 µM
- MIC (M. tuberculosis H37Rv): 0.0071 µM (≈ 0.00584 µg/mL)
- IC50 (Mycobacterium abscessus): 2.3 µM
- IC90 (Mycobacterium abscessus): 3.6 µM
- MIC (Mycobacterium abscessus): 3.6 µM (≈ 2.96 µg/mL)
- MIC (Mycobacterium avium; Mycobacterium avium): 0.098 µM (≈ 0.0806 µg/mL)

Molecule: CN[C@@H]1C[C@H]2O[C@@](C)([C@@H]1OC)n1c3ccccc3c3c4c(c5c6ccccc6n2c5c31)C(=O)NC4 [Staurosporine, reference compound]
- IC50 [7]: 0.0086 µM
